According to patent EP0170168A2, “N,N,-diethyl, N'-aryl, N'-(dichlorfluormethylthio)sulfamide-microbiocides” (BAYER AG, priority 1984, dated 1986):

Experiments:
Coriolus versicolor = experiment: Toxic limit values on impregnated wood discs (method after Sutter), beech wood; format: cell-based; conditions: Coriolus versicolor (Buche)
Text: (§1) Bestimmung der toxischen Grenzwerte (kg/m^3 Holz) der Wirkstoffe gemäß Beispiel 1 und 2 für Coniophora puteana bzw. Coriolus versicolor auf Kiefern- bzw. Buchenholz. Die Bestimmung der toxischen Grenzwerte erfolgt in Anlehnung an die von H.P. Sutter, Int. Biodeterioration Bulletin 14 (3), 1978, Seiten 95 bis 99, beschriebenen Methode.
(§2) Für die Tests werden jeweils frisch geschnittene dünne Stirnholzscheibchen (Größe 40 x 40 mm, Dicke etwa 2 mm) im Vakuum mit Lösungen unterschiedlich definierter Wirkstoffkonzentration getränkt. Die Menge des absorbierten Wirkstoffs in kg/m^3 Holz wird aus der Retention der Lösung (durch Einzelwägung der Holzproben vor und nach der Imprägnierung bestimmt), der Holzdichte und der Konzentration des Wirkstoffs in der verwendeten Imprägnierlösung errechnet.
(§3) Je 5 der 15 getrockneten Prüflinge einer Wirkstoffkonzentration werden dem Pilzangriff ohne Belastung ausgesetzt, 5 weitere Proben werden vorher im Windkanal (Windgeschwindigkeit: 1 + 0,1 m/sec; Temp.: 40 + 2°C) 4 Wochen lang belastet, 5 andere Prüflinge werden einer Wässerung in Anlehnung an DIN EN 84 unterzogen (14 Tage Lagerung in dest. Wasser bei 20°C, 9-maliger Wasserwechsel).
(§4) Für den mykologischen Test werden die Prüflinge nach Sterilisieren mit Propylenoxid einzeln auf das voll entwickelte Pilzmycel des Prüfpilzes auf Malzextraktagar in Petrischalen aufgelegt, durch Distanzhalter beträgt der Abstand zwischen Agaroberfläche und Probe ca. 5 mm. Nach 6wöchiger Lagerung bei 21-23°C wird der Zerstörungsgrad der Prüfling visuell beurteilt.
(§5) Als Grenzwerte der toxischen Wirkung werden die beiden Konzentrationen des Wirkstoffs in kg/m^3 Holz ermittelt, bei denen das Holz gerade noch und nicht mehr angegriffen wird.
(§6) In der folgenden Tabelle sind die Mittelwerte der Toxizitätsgrenzwerte für die erfindungsgemäßen Substanzen gemäß Beispiel 1 und 2 sowie für den bekannten Wirkstoff Dichlorfluonid für zwei Prüfpilze und zwei verschiedene Holzarten angegeben.
(§7) Mittlere Toxizitätsgrenzen (kg/m^3 Holz) von Wirkstoffen gemäß Beispiel 1 und 2 für holzzerstörende Pilze.

Coniophora puteana = experiment: Toxic limit values on impregnated wood discs (method after Sutter), pine wood; format: cell-based; conditions: Coniophora puteana (Kiefer)
Text: as §1, §2, §3, §4, §5, §6, §7

[1] = Solubility in organic solvents for wood preservatives; format: physicochemical; conditions: for Löslichkeit (%) in Shellsol AB: solvent Shellsol AB; for Löslichkeit (%) in Testbenzin: solvent Testbenzin
Text: Löslichkeiten erfindungsgemäßer Wirkstoffe nach Beispiel 1 und 2 im Vergleich zum handelsüblichen Dichlofluanid in organischen Lösungsmitteln für Holzschutzmittel
(Testbenzin und Shellsol AB sind handelsübliche niedrigsiedende Kohlenwasserstoffe).

[2] = ohne Belastung, 6 weeks at 21-23°C
[3] = nach Belüftung (wind tunnel 4 weeks, 40°C)
[4] = nach Wässerung (14 days in distilled water, 20°C)

SMILES	Mittlere Toxizitätsgrenzen (Coriolus versicolor; [2])	Mittlere Toxizitätsgrenzen (Coniophora puteana; [2])	Löslichkeit (%) in Shellsol AB [1]	Löslichkeit (%) in Testbenzin [1]	Mittlere Toxizitätsgrenzen (Coriolus versicolor; [3])	Mittlere Toxizitätsgrenzen (Coriolus versicolor; [4])	Mittlere Toxizitätsgrenzen (Coniophora puteana; [3])	Mittlere Toxizitätsgrenzen (Coniophora puteana; [4])
CCN(CC)S(=O)(=O)N(SC(F)(Cl)Cl)c1ccc(C)cc1 [Beispiel 2, N,N-Diethyl-N'-(p-tolyl)-N'-(dichlorfluormethylthio)-sulfamid]	1,5 kg/m^3 Holz	0,7 kg/m^3 Holz	67%	59%				
CCN(CC)S(=O)(=O)N(SC(F)(Cl)Cl)c1ccccc1 [Beispiel 1, N,N-Diethyl-N'-phenyl-N'-(dichlorfluormethylthio)-sulfamid]	0,6 kg/m^3 Holz	0,4 kg/m^3 Holz	71%	16%	2,7 kg/m^3 Holz	1,1 kg/m^3 Holz	2,0 kg/m^3 Holz	0,8 kg/m^3 Holz
CN(C)S(=O)(=O)N(SC(F)(Cl)Cl)c1ccccc1 [Dichlofluanid, N,N-Dimethyl-N'-phenyl-N'-(fluordichlormethylthio)-sulfamid, reference compound]	2,5 kg/m^3 Holz	1,9 kg/m^3 Holz	6%	1,2%	3,5 kg/m^3 Holz	3,2 kg/m^3 Holz	3,7 kg/m^3 Holz	2,4 kg/m^3 Holz
